Results on 108 molecules are retold here after the OPERA property sets (Mansouri et al. 2018).

A word on the logP: it is a log measure of how a compound divides between an organic and an aqueous phase. A higher logP goes with a more lipophilic compound.

Where a SMILES comes first, the peptide text is derived from it.

With `COC1C(OC(C)=O)CC(=O)OC(C)CC=CC=CC(=O)C(C)CC(CC=O)C1OC1OC(C)C(OC2CC(CO)C(OC(=O)CC(C)C)C(C)O2)C(N(C)C)C1O` (stereo not drawn), the lipophilicity (logP) came out at 3.52. In the case of `CCOc1cc2ncnc(Nc3cccc(I)c3)c2cc1OCC` it was 4.62.

In turn, `CC1CC(N)CN1c1cc2c(cc1F)c(=O)c(C(=O)O)cn2-c1ccc(F)cc1F` (stereo not drawn) returned a log partition coefficient (logP) of 0.09. In the case of `COc1ccc(C2CC(=O)N(CCN(C)C)c3cccc(C(F)(F)F)c3C2)cc1` (stereo not drawn) it was 5.1; in that of `CCCCc1c(O)c(=O)cc(C)n1C`, 0.9; in that of `Cc1cc2c(cc(C)c3ccc(=O)oc32)o1`, 2.92.

Regarding `O=c1cc(-c2ccccc2Cl)oc2ccc(Cl)cc12`, the lipophilicity (logP) was 4.09. To `Cc1cc(C)cc(Cc2c[nH]cn2)c1` belongs 2.52; to `CCCOCCCNc1ncnc2c1ncn2C1OC(CO)C(O)C1O` (stereo not drawn), 0.81; to `Clc1cc(-c2ccc(Cl)c(Cl)c2Cl)cc(Cl)c1Cl`, 7.6. To `CC(C)C(N)C(=O)NCC(=O)NC(Cc1ccccc1)C(=O)NC(Cc1ccccc1)C(=O)O` (stereo not drawn) (H-VGFF-OH; configuration not given here) belongs -0.51. To `CCCC1C(=O)N(CCN(C)C)c2ccccc2CC1c1ccc(OC)cc1` (stereo not drawn) belongs 5.6; to `Clc1c(Br)cccc1N=C1NCCN1`, 1.82; to `CC1(C(Cl)Cl)C2CC(Cl)(Cl)C1(C(Cl)Cl)CC2(Cl)Cl` (stereo not drawn), 5.9. `CCOC(=O)c1ccc(N=NN(C)C(=O)OCOC(C)=O)cc1` displayed a lipophilicity (logP) of 3.44. To `NC1=NCC(CN2CC=CCC2)O1` (stereo not drawn) belongs 0.19. In the case of `COc1ccc(C2Cc3cc(C(F)(F)F)ccc3N(CCN(C)C)C(=O)C2OC(C)=O)cc1` (stereo not drawn) it was 4.8; in that of `COc1ccc(-n2nnnc2N)cc1`, 0.85; in that of `COC(=O)C(C)NP(=O)(OCC1C=CC(n2cc(C)c(=O)[nH]c2=O)O1)Oc1ccc(C#N)cc1` (stereo not drawn), 0.91. `NC(Cc1c[nH]c2ccccc12)C(=O)NC(Cc1ccc(O)cc1)C(=O)O` (stereo not drawn) returned a logP of -1.13. To `Cc1cc(=O)[nH]nc1/C=C/c1ccc(-n2cnc3c2CCCC3)cc1` belongs 3.1. In the case of `CNC(Cc1ccccc1)C(=O)N1CCCC1C(=O)NCC1CCC(N)CC1` (stereo not drawn) it was 1.12; in that of `NC(Cc1ccccc1)C(=O)N1CCCC1C(=O)O` (stereo not drawn) (H-Phe-Pro-OH; configuration not given here), -1.23; in that of `CC(C)=CCCC(C)=CCCC(=CCCC(C)=CCO)CO`, 4.7. To `Cc1ccc2c(c1)OCN(CCO[N+](=O)[O-])C2=O` belongs 2.44. Regarding `O=C(NS(=O)(=O)c1cnccc1NC1CCCCCCC1)N1CCCCC1`, the log partition coefficient (logP) was 4.55. As for `CCCCN1CCCC1CNC(=O)c1cc(S(N)(=O)=O)cc2c1OC(C)C2` (stereo not drawn), the logP is 2.8. In the case of `c1ccc(CN2CCN(CCCOn3nnc4ccccc43)CC2)cc1` it was 4; in that of `Brc1cc(Br)c2ccc3cccc4ccc1c2c43`, 6.85. In the case of `Cc1ccc(Cc2c[nH]cn2)cc1C` it was 2.72.

Take `CC1=CCCC(C)C12CCC(C(C)(C)O)C2` (stereo not drawn): the logP stood at 4.59. To `CC(C)(C)c1ccc(C(CCN2CCCC2)c2ccccc2)cc1` (stereo not drawn) belongs 6.72. On to `CC(C)CCCNc1[nH]cnc2ncnc1-2`, for which the logP was determined as 3.06. To `CCOc1ccccc1CNc1[nH]cnc2ncnc1-2` belongs 2.72; to `OCC1OC(n2cnc3c(NCCc4ccccc4)ncnc32)C(O)C1O` (stereo not drawn), 1.55; to `O=C(NC1CCCCCC1)NS(=O)(=O)c1cnccc1NC1CCCCC1`, 4.62. In the case of `O=C1c2ccccc2-c2cc([N+](=O)[O-])ccc21` it was 3.06; in that of `CC=C(C)C(=O)OCC1CCCC2(C)CCC(C(C)(C)O)CC12` (stereo not drawn), 5.27; in that of `O=c1cc(-c2ccccc2)[nH]n1-c1ccc(Cl)cc1`, 2.6.

`CNc1ncnc2c1ncn2Cc1ccccc1F` had a logP of 1.86.

Consider `NC(Cc1c[nH]c2ccccc12)C(=O)N1CCCC1C(=O)O` (stereo not drawn), for which the logP was -0.98.

`CC1CCCCC1NC(=O)N1C(=O)N(C)CC1O` (stereo not drawn) yielded a logP of 2.2. `COc1ccc(C2=NC(C)(C(=O)O)CS2)c(O)c1` (stereo not drawn) had a logP of 1.7. To `O=C(O)CCCCCON=C(c1cccc(C(F)(F)F)c1)c1cnccn1` belongs 3.52. In the case of `CON=C(C(=O)NC1C(=O)N2C(C(C)OC(C)=O)=CCSC12)c1csc(N)n1` (stereo not drawn), the logP amounted to 0.46. For `CSCC(NC(C)=O)C(N)=O` (stereo not drawn), the logP was -0.6.

In the case of `O=C(O)CCCCON=C(c1cccc(C(F)(F)F)c1)c1cnccn1`, the lipophilicity (logP) was found to be 3.26. Take `Clc1ccc(N2CCN(CCn3nnc4ccccc43)CC2)cc1`: the lipophilicity (logP) came to 3.4. The logP values of the last two molecules are within 0.2 log units of each other. To `COc1ccc(CCNCC(O)COc2ccc(Cc3nc(C(C)=O)c[nH]3)cc2)cc1OC` (stereo not drawn) belongs 2.3; to `CC(C)=CCNc1ncnc2c1ncn2[C@@H]1O[C@H](CO)[C@@H](O)[C@H]1O`, 1.3. In the case of `NC(=O)C(N)Cc1c[nH]c2ccccc12` (stereo not drawn) it was 0.3; in that of `O=C(NCCCCCOCCCN1CCOCC1)NC12CC3CC(CC(C3)C1)C2`, 2.7. In the case of `CCCCOC(NC(=O)c1ccccc1O)C(Cl)(Cl)Cl` (stereo not drawn) it was 4.45. `CCOP(=O)(Oc1ccc(C#N)cc1)c1ccccc1` (stereo not drawn) had a logP of 2.44. To `COc1cc(OC)nc(Oc2cccc(C(F)(F)F)c2C(=O)O)n1` belongs 2.7. In the case of `Cc1cccc(C)c1CCN` it was 2.38; in that of `CC(C)CC(N)C(=O)NC(CC(C)C)C(=O)NC(C(=O)NC(Cc1ccccc1)C(=O)O)C(C)C` (stereo not drawn) (H-LLVF-OH; configuration not given here), -0.25.

For the molecule `CC(=O)Oc1cc(OC(C)CCCc2ccccc2)cc2c1C1CC(O)CCC1C(C)N2` (stereo not drawn), the logP came to 5.7. To `CCCCNCc1ccc(C)cc1` belongs 3.49. To `COc1c2ccccc2cc2ccccc12` belongs 4.36; to `NC(=S)NN=C(c1cccc([N+](=O)[O-])c1)c1ccccn1`, 1.9; to `COc1ccc(C(=O)NN=Cc2c(CO)ccc(C)c2O)cc1`, 3.34. To `Cc1cccc2c1OP(=O)(OCC1C=CC(n3cc(C)c(=O)[nH]c3=O)O1)OC2` (stereo not drawn) belongs 0.71; to `CC(C)NCC(O)COc1ccc(-c2nc(C(C)C)c[nH]2)cc1` (stereo not drawn), 2.95.

`FC(F)(F)c1ccccc1CNc1[nH]cnc2ncnc1-2` came in with a log partition coefficient (logP) of 3.04. To `CC(=O)NC(CCCN(Cc1ccccc1)C(=O)N(C)N=O)C(=O)NCc1ccccc1` (stereo not drawn) belongs 2; to `OC(CNCC1COc2ccccc2O1)CON=C(C1CC1)C1CC1` (stereo not drawn), 2.22. To `CCCN(CCC)C1CCc2c(O)cccc2C1` (stereo not drawn) belongs 3.58. `O=C1NC(=O)C(c2ccccc2)(c2ccccc2)N1S(=O)(=O)c1ccc(O)cc1` returned a lipophilicity (logP) of 3.58.

For `CC(C)c1cc(=S)ss1`, the log partition coefficient (logP) came to 2.75. On to `Cc1ncc([N+](=O)[O-])n1CCN=[N+]=[N-]`, for which the logP stood at 0.76. In the case of `Nc1nc(N)c2c(Br)cccc2n1` it was 1.91; in that of `NC1=NCC(CN2CCC(c3ccccc3)CC2)O1` (stereo not drawn), 1.96; in that of `Nc1ccc(CNC(=O)C2CCCN2C(=O)C(N)C(C2CCCCC2)C2CCCCC2)cn1` (stereo not drawn), 4.61. In the case of `CC(C)(C)[N+]([O-])=Cc1ccc([N+](=O)[O-])cc1` it was 1.4.

For `Nc1nnnn1-c1ccc([N+](=O)[O-])cc1`, the logP turned out to be 0.77.

`COc1ccc(CCNCC(O)COc2ccc(-c3nc(C(N)=O)c[nH]3)cc2)cc1OC` (stereo not drawn) showed a logP of 2.3. To `Clc1ccc(C=NOCCc2nnc(-c3ccccc3)o2)cc1` belongs 3.01. To `COC(=O)c1cc2cccc3ccc4cccc1c4c32` belongs 4.73; to `COC(=O)C(C)(C)S(=O)(=O)c1ccc([N+](=O)[O-])cc1`, 1.38. In the case of `COCC(O)Cn1c([N+](=O)[O-])nc(Br)c1Br` (stereo not drawn) it was 1.02; in that of `Cc1oc2ccc3c(C)cc(=O)oc3c2c1C`, 3.28. For the molecule `CC(C)(C)[N+]([O-])=Cc1ccccc1O`, the logP came to 1.3.

As to `CCOC(=O)C1=C(C)NC(C)=C(C(=O)OC)C1c1cccc2c1OCCO2` (stereo not drawn), the lipophilicity (logP) was 3.57. Consider `COc1ccc(C2Cc3c(ccc(Br)c3OC)N(CCN(C)C)C(=O)C2C)cc1` (stereo not drawn), for which the logP is 5.4.

With `Cc1coc2nc3oc(=O)ccc3c(C)c12`, the logP is 1.71. `Nc1nnnn1-c1ccc(Cl)c(Cl)c1` registered a logP of 2.06. The molecule `COc1c2oc(=O)c(C)cc2cc2c(C)c(C)oc12` came in with a logP of 3.28.

`O=C(NC(Cc1c[nH]c2ccccc12)C(=O)O)OCc1ccccc1` (stereo not drawn) displayed a logP of 3.2.

`C[N+](C)([O-])CC(c1ccccc1)c1ccccc1` yielded a log partition coefficient (logP) of 1.01. To `CCNC(=NC#N)NS(=O)(=O)c1cnccc1NC1CCCCCCC1` belongs 2.05; to `NC1=NCC(COc2ccccc2Cc2ccccc2)O1` (stereo not drawn), 3.05.

Consider `CCCCC(C)N=C=S` (stereo not drawn), for which the log partition coefficient (logP) is 3.94. `Cc1ccc(OCC(O)C(C)NC(C)C)c2c1CCC2` (stereo not drawn) gave a logP of 3.19.

As for `O=[N+]([O-])c1nccn1CC(O)C(O)CF` (stereo not drawn), the logP was -0.77.

`CCOP(=O)(OCC)C(C)(C)[N+]([O-])=Cc1ccc([N+](=O)[O-])cc1` yielded a logP of 1.43. To `O=c1cc(-c2ccccc2)oc2ccc(Cl)cc12` belongs 3.92. In the case of `COc1cc2ccncc2cc1OC` it was 1.68; in that of `COc1ccccc1CNc1ncnc2nc[nH]c12`, 2.31; in that of `Cc1cccc(C)c1OCCN(C)C`, 2.74. In the case of `COc1cc2ncnc(Nc3cccc(F)c3)c2cc1OC` it was 2.96; in that of `Cc1ccc(CO)c(C=NNC(=O)c2cccc(Br)c2)c1O`, 3.91; in that of `COc1ccc(SC)cc1CNC1CCCNC1c1ccccc1` (stereo not drawn), 3.7. `CCCCCCCCNCCO` showed a logP of 2.75.

For the molecule `Nc1nc(N)c2c(I)cccc2n1`, the logP stood at 2.12. For the molecule `CC(C)C(NC(=O)C(N)Cc1ccccc1)C(=O)NC(Cc1ccccc1)C(=O)O` (stereo not drawn) (H-Phe-Val-Phe-OH; configuration not given here), the logP is -0.76.

Turning to `Clc1ccc2c(oc3c(Cl)cc(Cl)c(Cl)c32)c1Cl`, the logP worked out at 6.27. In the case of `COc1cc(NS(C)(=O)=O)ccc1-c1cn2cccnc2n1` it was 0.72.
